The results in this text go back to patent publication US12122780B2, “Pyrimidinyl group-containing tricyclic compound serving as c-Met inhibitor” (JIANGSU AOSAIKANG PHARMACEUTICAL CO., LTD., priority 2019, dated 2024).

A short description of data set [1]: Pharmacokinetics of single intravenous and oral administration in mice. The data set is classed as in vivo. The note with it: for Exposure AUC / Vd / clearance / half-life: intravenous injection, 1 mg/kg; for Vd / clearance / half-life / bioavailability: mouse, plasma; for Vd: read-out: Apparent volume of distribution; for clearance: read-out: Clearance rate; for half-life: read-out: Half-life (T1/2) (converted); for bioavailability / Exposure AUC0-last / Maximum blood concentration / Peak time: oral administration, 10 mg/kg. How it is done: (§1) The objective of this experiment was to study the pharmacokinetics (PK) of the test compound in different species after a single intravenous and a single oral administration.
(§2) After intravenous injection or oral administration, animal blood samples were collected and the actual blood collection time was recorded. Immediately after collection, blood samples were transferred to labeled centrifuge tubes containing K2-EDTA and subsequently centrifuged and processed to obtain plasma. Plasma was transferred to pre-cooled centrifuge tubes, snap-frozen in dry ice and stored in an ultra-low temperature refrigerator at −70±10° C. until LC-MS was performed.
(§3) Plasma drug concentration data of the compounds were processed using pharmacokinetic software with a non-compartmental model. The peak concentration (Cmax) and time to peak (Tmax), as well as the quantifiable end time, were obtained directly from the blood concentration-time diagram. The log-linear trapezoidal method was used to calculate the following pharmacokinetic parameters: half-life (T1/2), apparent volume of distribution (Vdss) and clearance rate (Cl), and the area under the time-plasma concentration curve from 0 points to the end time (AUC0-last), the initial concentration (C0).

The target of a further data set is c-Met enzyme (Homo sapiens (Human), UniProt P08581). As to the kind of experiment: c-Met enzyme activity inhibition (Promega c-Met Kinase Enzyme System, ADP-Glo). The conditions noted are these: 10 μM ATP, 60 min, 30° C. The data set is classed as biochemical. How it is done:
To detect the inhibitory effect of the compounds on c-Met enzyme activity.
The c-Met Kinase Enzyme System was purchased from Promega. Envision multi-label analyzer (PerkinElmer).
The kinase buffer in the kit was used to dilute the enzyme, substrate, ATP and inhibitor.
The compound to be tested was diluted 5-fold to the eighth concentration with a discharge gun, i.e., from 50 μM to […], with a final DMSO concentration of 5%, and double duplicate wells experiment was set. 1 μL of each concentration gradient of the inhibitor, 2 μL of c-Met enzyme (4 ng), 2 μL of a mixture of the substrate and ATP (10 μM ATP, 0.2 μg/μL poly E4Y1) were added to the microplate, and the final concentration gradient of the compound of 10 μM was diluted to 0.13 nM. The reaction system was placed at 30° C. and the reaction was carried out for 60 minutes. When the reaction was completed, 5 μL of ADP-Glo reagent was added to each well and the reaction was carried out at 30° C. for another 40 minutes, when the reaction was completed, 10 μL of kinase detection reagent was added to each well, then the reaction was carried out at 30° C. for still another 30 minutes, chemiluminescence was read by the PerkinElmer Envision multi-label analyzer with an integration time of 0.5 seconds.
Using the equation (Sample-Min)/(Max-Min)*100% to convert the original data to the inhibition rate, the IC50 value can be obtained by curve fitting with four parameters (obtained by log(inhibitor) vs. response in GraphPad Prism—Variable slope mode).
(ADP-Glo turns the ADP formed in a reaction into a luminescent signal.)

Data set [2] in a line: Pharmacokinetics of single intravenous and oral administration in dogs. It is filed as in vivo. The note with it: for Vd / clearance / half-life / bioavailability: dog, plasma; for Vd / clearance / half-life / Exposure AUC: intravenous injection, 1 mg/kg; for Vd: read-out: Apparent volume of distribution; for clearance: read-out: Clearance rate; for half-life: read-out: Half-life (T1/2) (converted); for bioavailability / Exposure AUC0-last / Maximum blood concentration / Peak time: oral administration, 5 mg/kg. How it is done: as §1, §2, §3

The subject of the next data set is EBC-1 cells. As to the kind of experiment: EBC-1 cell proliferation experiment (CellTiter-Glo). It is filed as cell-based, human. The conditions noted are these: Homo sapiens, EBC-1, 72 h, 3 days. The protocol:
MEM medium, fetal bovine serum, penicillin/streptomycin antibiotics were purchased from Wisent. EBC-1 cell line was purchased from Nanjing COBIO Bioscience Co., LTD. Envision multi-label analyzer (PerkinElmer).
EBC-1 cells were seeded in a white 96-well plate, […] cell suspension per well, which contained 3000 EBC-1 cells. The cell plate was placed in a carbon dioxide incubator for overnight culture.
The compound to be tested was diluted 5-fold to the eighth concentration with a discharge gun, i.e., from 2 mM to […], and double duplicate wells experiment was set. 78 μL of the medium was added to the middle plate, then 2 μL per well of gradient diluted compound was transferred to the corresponding position on the middle plate, then mixed well and 20 μL per well was transferred to the cell plate. The cell plate was cultured in a carbon dioxide incubator for 3 days. Another cell plate was prepared and the signal values were read on the day of dosing as […] to be used in the data analysis. 25 μL of Promega CellTiter-Glo was added to each well of this cell plate, and incubated at room temperature for 10 minutes to stabilize the luminescence signal. Readings were taken using a PerkinElmer Envision multi-label analyzer.
25 μL of Promega CellTiter-Glo reagent was added to each well of this cell plate, and incubated at room temperature for 10 minutes to stabilize the luminescence signal. Readings were taken using a PerkinElmer Envision multi-label analyzer.
Using the equation (Sample-Min)/(Max-Min)*100% to convert the original data to the inhibition rate, the IC50 value can be obtained by curve fitting with four parameters (obtained by “log(inhibitor) vs. response in GraphPad Prism—Variable slope mode).
A general note: Cellular ATP, detected with luciferase, serves as a proxy for viable cell number.

As a reminder, the bioavailability is dose-corrected exposure relative to a reference, in per cent. Read a low bioavailability as little systemic uptake. Broadly, the pIC50 is −log10 of the IC50, conventionally taken in molar units. Read a high pIC50 as a small IC50.

The structures appear in SMILES notation. pIC50: −log10 of the molar value. Counter-ions that a name gives are not always drawn.

Chain of c-Met enzyme (P08581 956-1390): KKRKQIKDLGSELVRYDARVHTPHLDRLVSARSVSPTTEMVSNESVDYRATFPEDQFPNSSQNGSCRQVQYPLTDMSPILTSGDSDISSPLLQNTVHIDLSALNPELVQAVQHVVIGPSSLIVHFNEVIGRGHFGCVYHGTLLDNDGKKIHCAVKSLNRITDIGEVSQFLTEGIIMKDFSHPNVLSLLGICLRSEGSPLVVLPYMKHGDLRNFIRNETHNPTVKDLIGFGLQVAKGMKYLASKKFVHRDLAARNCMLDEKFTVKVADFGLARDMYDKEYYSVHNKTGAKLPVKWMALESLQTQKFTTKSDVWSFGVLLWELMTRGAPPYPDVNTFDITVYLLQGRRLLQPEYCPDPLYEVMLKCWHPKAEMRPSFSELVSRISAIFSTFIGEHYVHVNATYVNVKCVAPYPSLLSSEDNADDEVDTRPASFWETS

`CC(C)N1CCC(COc2cnc(-c3cccc(Cn4c(=O)ccn5c6cc(C#N)ccc6nc45)c3)nc2)CC1` [Hydrochloride of compound 25]: in data set [1], the Exposure AUC is 2.08 µM·h, the Vd amounted to 5.41 L/kg, the clearance was 14.7 mL/min/kg and the half-life is 4.51 h. In data set [1], this compound returned a bioavailability of 27%, an Exposure AUC0-last of 5.56 µM·h, a Maximum blood concentration of 541 nmol and a Peak time of 2.33 h. The compound also showed a negative logarithm of the IC50 (pIC50) against c-Met enzyme of 8.56. For the same compound, in data set [2], the Vd is 14.4 L/kg, the clearance came to 24.2 mL/min/kg, the half-life was 7.87 h and the bioavailability was 57.7%. For the same compound, in data set [2], the Exposure AUC turned out to be 1.23 µM·h, the Exposure AUC0-last stood at 3.54 µM·h, the Maximum blood concentration came out at 246 nM and the Peak time worked out at 4 h. The pIC50 in the data set with EBC-1 cells was 8.73.

Regarding `CC(C)(O)CN1CCC(COc2cnc(-c3cccc(Cn4c(=O)ccn5c6cc(C#N)ccc6nc45)c3)nc2)CC1` [Hydrochloride of compound 39], in data set [1], the Exposure AUC was 1.8 µM·h, the Vd turned out to be 7.27 L/kg, the clearance came to 15.8 mL/min/kg and the half-life is 6.73 h. In data set [1], this compound came in with a bioavailability of 82.3%, an Exposure AUC0-last of 14.9 µM·h, a Maximum blood concentration of 1070 nmol and a Peak time of 4 h. The pIC50 at c-Met enzyme is 8.26. Further, in data set [2], the Vd turned out to be 14.6 L/kg, the clearance was 18.7 mL/min/kg, the half-life was 9.47 h and the bioavailability came to 70.6%. Also, in data set [2], the Exposure AUC was determined as 1.34 µM·h, the Exposure AUC0-last was found to be 4.74 µM·h, the Maximum blood concentration came out at 451 nM and the Peak time came to 5 h. In the data set with EBC-1 cells, this compound showed a pIC50 of 8.32.
